# Measured values reported in publication PMC3537848 (Cancer research, 2012).
# Changes are numbered by the printed parent chain.
# Experiments:
# [1] = target: T1, Retinoid X receptor-α (RXRα) (Homo sapiens, UniProt P19793, R316E); assay: Gal4 luciferase reporter in CV-1 cells; format: cell-based
# T1 sequence (P19793 198-462 R316E): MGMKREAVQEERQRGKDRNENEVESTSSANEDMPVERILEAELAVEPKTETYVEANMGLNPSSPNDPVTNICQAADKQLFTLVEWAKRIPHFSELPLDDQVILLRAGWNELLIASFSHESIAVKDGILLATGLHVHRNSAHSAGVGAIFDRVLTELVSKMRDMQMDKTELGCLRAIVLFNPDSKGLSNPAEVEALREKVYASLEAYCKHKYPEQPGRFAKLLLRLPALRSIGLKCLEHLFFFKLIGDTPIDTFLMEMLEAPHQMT
# [2] = target: T2, Retinoid X receptor-α (RXRα) (Homo sapiens, UniProt P19793); assay: Gal4-RXRα-LBD luciferase reporter in CV-1 cells; format: cell-based
# T2 sequence (P19793 198-462): T1 sequence (P19793 198-462 R316E) with E119R
# [3] = target: T3, Retinoid X receptor-α (RXRα) (Homo sapiens, UniProt P19793); assay: radioligand competition with [3H]-9-cis-RA; format: binding
# T3 sequence (P19793 223-462 limits assumed): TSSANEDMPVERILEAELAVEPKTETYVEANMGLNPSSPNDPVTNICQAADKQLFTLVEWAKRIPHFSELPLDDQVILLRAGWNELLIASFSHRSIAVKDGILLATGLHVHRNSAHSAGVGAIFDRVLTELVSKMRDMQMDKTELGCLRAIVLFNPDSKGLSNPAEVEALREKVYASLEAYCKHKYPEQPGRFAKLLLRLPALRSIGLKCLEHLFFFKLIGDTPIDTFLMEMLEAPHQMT
# [4] = target: T1, Retinoid X receptor-α (RXRα); assay: Gal4 luciferase reporter in CV-1 cells, antagonism of CD3254; format: cell-based
IC50 [3] [µM],Structure (SMILES),Gal4 luciferase reporter in CV-1 cells (agonist) [1],Gal4-RXRα-LBD luciferase reporter in CV-1 cells (agonist) [2],"Gal4 luciferase reporter in CV-1 cells, antagonism of CD3254 [4]"
–,Cc1cc2c(cc1-c1cc(/C=C/C(=O)O)ccc1O)C(C)(C)CCC2(C)C [CD3254],CD3254 could still activate the RXRα/R316E mutant,"CD3254 strongly induced Gal4-RXRα/LBD activity, which was comparable to that induced by 9-cis-RA",–
9.6,"CC(C)=CCC/C(C)=C/Cc1c(O)c(O)cc2c(=O)c3c(O)c(CC=C(C)C)c(O)cc3oc12 [CF31, 1,3,6,7-tetrahydroxy-2-(3-methyl-2-butenyl)-5-(3,7-dimethyl-2,6-octadienyl)xanthone]",–,–,CD3254-induced reporter activity was potently inhibited by CF31 in a dose dependent manner (Fig. 2C)
